SMILES strings stand for the structures.

In assay [1] the target is T1, SIK2 (Homo sapiens, UniProt Q9H0K1). Kind of assay: SIK2 Enzymatic Assay Version 1 (ADP Glo). The class given is biochemical. Particulars: enzyme 0.6 nM, 160 μM ATP and 140 μM HDAC5tide (each 2× final concentration); 30 minutes pre-incubation, 4 hours; ADPGlo luminescence; read-out: SIK2 ADP Glo IC50 (μM) (Test Example 1). Put shortly: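 Room-temperature ADP-Glo luminescence assay; SIK2 added at 0.6 nM (2× final) and preincubated with compound for 30 min. Reaction stopped with ADP-Glo Reagent for 40 min, then detection reagent for at least 30 min; no-peptide (ATP-only) wells served as negative control.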
On the technique in general: In ADP-Glo the light output rises with the ADP produced.

In assay [2] the target is T1, SIK2. Kind of assay: SIK2 Enzymatic Assay High Version 2 (High ATP). The class given is biochemical. Put shortly:
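At room temperature, enzyme (6 nM, 2× final) was preincubated with compound for 30 min, then 6 mM ATP and 400 μM HDAC5tide (both 2× final) were added for 2 h. ADP formed was measured by ADP-Glo Max (2 h reagent, 1 h detection) using luminescence.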

T1 sequence (Q9H0K1 whole entry, species assumed): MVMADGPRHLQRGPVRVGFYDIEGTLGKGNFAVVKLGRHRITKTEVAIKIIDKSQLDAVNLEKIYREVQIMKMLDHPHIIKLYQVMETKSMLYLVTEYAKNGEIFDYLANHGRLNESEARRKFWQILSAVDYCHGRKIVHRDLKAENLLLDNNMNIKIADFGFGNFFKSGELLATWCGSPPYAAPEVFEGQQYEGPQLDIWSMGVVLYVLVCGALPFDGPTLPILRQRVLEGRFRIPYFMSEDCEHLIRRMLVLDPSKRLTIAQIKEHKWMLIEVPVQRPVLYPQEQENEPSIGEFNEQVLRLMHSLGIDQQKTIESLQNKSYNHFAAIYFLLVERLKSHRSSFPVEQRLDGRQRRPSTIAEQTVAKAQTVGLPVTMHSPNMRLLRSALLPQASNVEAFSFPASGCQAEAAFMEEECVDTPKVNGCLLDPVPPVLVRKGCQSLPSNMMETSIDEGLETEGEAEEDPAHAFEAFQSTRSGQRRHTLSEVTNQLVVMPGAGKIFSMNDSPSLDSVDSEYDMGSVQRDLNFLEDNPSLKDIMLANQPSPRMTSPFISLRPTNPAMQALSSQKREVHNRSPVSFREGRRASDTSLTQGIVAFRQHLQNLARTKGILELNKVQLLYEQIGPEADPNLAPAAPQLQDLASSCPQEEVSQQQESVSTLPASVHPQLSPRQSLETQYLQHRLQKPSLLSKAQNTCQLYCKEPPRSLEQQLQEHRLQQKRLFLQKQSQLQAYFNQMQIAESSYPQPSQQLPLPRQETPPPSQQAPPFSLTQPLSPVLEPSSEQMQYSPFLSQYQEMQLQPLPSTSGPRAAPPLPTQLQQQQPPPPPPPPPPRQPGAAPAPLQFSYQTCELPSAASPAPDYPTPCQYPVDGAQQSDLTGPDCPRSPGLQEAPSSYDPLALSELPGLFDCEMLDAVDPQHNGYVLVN

In general, IC50 refers to the point on the concentration scale where inhibition reaches its midpoint. For the compound `COCCN1CC[C@H](Oc2cnc(C#N)cc2-c2ccn3nc(NC(=O)C4CC4)cc3c2)C1` [Example 108, (S)—N-[5-[2-cyano-5-[(3S)-1-(2-methoxyethyl)pyrrolidin-3-yl]oxy-4-pyridyl]pyrazolo[1,5-a]pyridin-2-yl]cyclopropanecarboxamide], the IC50 is 0.00527 µM on SIK2 [1] and 204 nM at SIK2 [2].

Regarding `N#Cc1cc(-c2ccn3nc(NC(=O)C4CC4)cc3c2)c(O[C@H]2CCN(Cc3ccccn3)C2)cn1` [Example 109, (S)—N-[5-[2-cyano-5-[(3S)-1-(2-pyridylmethyl)pyrrolidin-3-yl]oxy-4-pyridyl]pyrazolo[1,5-a]pyridin-2-yl]cyclopropanecarboxamide], the half-inhibitory concentration (IC50) at SIK2 [1] stood at 0.00422 µM; at SIK2 [2], 116 nM.

As to `N#Cc1cc(-c2ccn3nc(NC(=O)C4CC4)cc3c2)c(O[C@@H]2CCN(CC(F)(F)F)C2)cn1` [Example 110, (R)—N-[5-[2-cyano-5-[(3R)-1-(2,2,2-trifluoroethyl)pyrrolidin-3-yl]oxy-4-pyridyl]pyrazolo[1,5-a]pyridin-2-yl]cyclopropanecarboxamide], the half-inhibitory concentration (IC50) was 0.00055 µM at SIK2 [1] and 2.85 nM on SIK2 [2].

Take `COCCN1CC[C@@H](Oc2cnc(C#N)cc2-c2ccn3nc(NC(=O)C4CC4)cc3c2)C1` [Example 111, (R)—N-[5-[2-cyano-5-[(3R)-1-(2-methoxyethyl)pyrrolidin-3-yl]oxy-4-pyridyl]pyrazolo[1,5-a]pyridin-2-yl]cyclopropanecarboxamide]: the values for the IC50 on SIK2 [1] and at SIK2 [2] were 0.00261 µM and 47.9 nM, respectively.

As for `N#Cc1cc(-c2ccn3nc(NC(=O)C4CC4)cc3c2)c(O[C@@H]2CCN(Cc3ccccn3)C2)cn1` [Example 112, (R)—N-[5-[2-cyano-5-[(3R)-1-(2-pyridylmethyl)pyrrolidin-3-yl]oxy-4-pyridyl]pyrazolo[1,5-a]pyridin-2-yl]cyclopropanecarboxamide], the IC50 turned out to be 0.00356 µM at SIK2 [1] and 81.5 nM against SIK2 [2].

Turning to `N#CCN1CC[C@@H](Oc2cnc(C#N)cc2-c2ccn3nc(NC(=O)C4CC4)cc3c2)C1` [Example 113, (R)—N-[5-[2-cyano-5-[(3R)-1-(cyanomethyl)pyrrolidin-3-yl]oxy-4-pyridyl]pyrazolo[1,5-a]pyridin-2-yl]cyclopropanecarboxamide], the concentration for half-maximal inhibition (IC50) came to 0.000393 µM on SIK2 [1] and 2.27 nM at SIK2 [2].

`N#CCN1CC[C@H](Oc2cnc(C#N)cc2-c2ccn3nc(NC(=O)C4CC4)cc3c2)C1` [Example 114, (S)—N-[5-[2-cyano-5-[(3S)-1-(cyanomethyl)pyrrolidin-3-yl]oxy-4-pyridyl]pyrazolo[1,5-a]pyridin-2-yl]cyclopropanecarboxamide]: the IC50 at SIK2 [1] was 0.000337 µM; against SIK2 [2], 6.58 nM.

With `Cc1cc(-c2ccn3nc(NC(=O)C4CC4)cc3c2)c(OC2CN(C)C2)cn1` [Example 115, N-(5-(2-methyl-5-((1-methylazetidin-3-yl)oxy)pyridin-4-yl)pyrazolo[1,5-a]pyridin-2-yl)cyclopropanecarboxamide], the IC50 on SIK2 [1] is 0.0095 µM; against SIK2 [2] it was 159 nM.

As for `Cc1cc(-c2ccn3nc(Nc4ccn(C)n4)cc3c2)c(OC[C@@H]2CNCCO2)cn1` [Example 129, 5-[2-methyl-5-[[(2S)-morpholin-2-yl]methoxy]-4-pyridyl]-N-(1-methylpyrazol-3-yl)pyrazolo[1,5-a]pyridin-2-amine], the IC50 amounted to 0.000657 µM on SIK2 [1] and 8.28 nM at SIK2 [2].

On to `Cc1cc(-c2ccn3nc(NC(=O)C4CC4)cc3c2)c(O[C@H]2C[C@H]3COC[C@@H](C2)N3)cn1` [Example 136, endo-N-(5-(5-(((1R,5S,7s)-3-oxa-9-azabicyclo[3.3.1]nonan-7-yl)oxy)-2-methylpyridin-4-yl)pyrazolo[1,5-a]pyridin-2-yl)cyclopropanecarboxamide], for which the IC50 is 0.000208 µM at SIK2 [1] and under 0.838 nM on SIK2 [2].

`Cc1cc(-c2ccn3nc(NC(=O)C4CC4)cc3c2)c(O[C@@H]2CCN(C)C2)cn1` [Example 137, N-[5-[2-methyl-5-[(3R)-1-methylpyrrolidin-3-yl]oxy-4-pyridyl]pyrazolo[1,5-a]pyridin-2-yl]cyclopropanecarboxamide]: the results for the half-inhibitory concentration (IC50) on SIK2 [1] and against SIK2 [2] were 0.00334 µM and 70 nM, respectively.

These data come from patent publication US20240158392A1 (Janssen Biotech, Inc., priority 2021, published 2024).
